Reference: ChEMBL document CHEMBL5032539, “Indole-Containing Amidinohydrazones as Nonpeptide, Dual RXFP3/4 Agonists: Synthesis, Structure-Activity Relationship, and Molecular Modeling Studies” (J Med Chem, 2021)
≈ marks a conversion by molar mass, not a printed value.

What was measured:
[1] = target: T1, Relaxin-3 receptor 1 (Homo sapiens, UniProt Q9NSD7)
T1 sequence (Q9NSD7 whole entry): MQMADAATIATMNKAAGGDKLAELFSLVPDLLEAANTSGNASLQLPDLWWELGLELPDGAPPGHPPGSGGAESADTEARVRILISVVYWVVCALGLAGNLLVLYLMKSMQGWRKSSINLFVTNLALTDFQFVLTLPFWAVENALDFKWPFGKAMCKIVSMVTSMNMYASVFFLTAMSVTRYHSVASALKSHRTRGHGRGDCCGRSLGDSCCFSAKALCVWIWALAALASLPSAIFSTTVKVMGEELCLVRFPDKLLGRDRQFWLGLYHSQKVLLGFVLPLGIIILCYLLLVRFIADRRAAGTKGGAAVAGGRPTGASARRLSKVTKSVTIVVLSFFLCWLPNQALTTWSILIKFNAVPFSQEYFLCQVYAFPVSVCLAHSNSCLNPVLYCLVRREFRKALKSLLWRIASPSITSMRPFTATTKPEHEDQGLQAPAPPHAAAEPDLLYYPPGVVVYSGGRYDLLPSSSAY

[2] = target: Relaxin-3 receptor 2 (Homo sapiens, UniProt Q8TDU9)
[3] = target: T1, Relaxin-3 receptor 1; experiment: biochemical
[4] = physchem; conditions: buffer, pH 7.4

Relaxin-3 receptor 2, sequence (Q8TDU9 whole entry): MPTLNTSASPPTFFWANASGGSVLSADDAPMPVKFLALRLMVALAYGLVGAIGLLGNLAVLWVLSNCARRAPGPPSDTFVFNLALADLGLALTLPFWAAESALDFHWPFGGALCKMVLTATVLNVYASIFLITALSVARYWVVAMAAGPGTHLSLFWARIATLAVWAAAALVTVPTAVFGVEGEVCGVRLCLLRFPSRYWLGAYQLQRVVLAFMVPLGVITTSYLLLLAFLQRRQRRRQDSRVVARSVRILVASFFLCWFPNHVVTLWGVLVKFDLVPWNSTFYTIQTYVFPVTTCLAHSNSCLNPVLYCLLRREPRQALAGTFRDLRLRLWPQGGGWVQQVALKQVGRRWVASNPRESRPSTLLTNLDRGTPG

## COc1cc(C)c2[nH]cc(/C=N/NC(=N)NCCc3ccc(N(C)C)cc3)c2c1
[1]
  EC50: 98.4 nM

## N#Cc1ccc2[nH]cc(/C=N/NC(=N)NCCc3ccc(Cl)cc3)c2c1
[1]
  EC50: 253 nM

## N=C(NCCc1ccc(Cl)cc1)N/N=C/c1c[nH]c2c(F)cccc12
[1]
  EC50: 2790 nM

## N=C(NCCc1ccc(Cl)cc1)N/N=C/c1c[nH]c2cccc(F)c12
[1]
  EC50: 3210 nM

## CCc1cc(O)cc2c(/C=N/NC(=N)NCCc3ccc(Cl)cc3)c[nH]c12
[2]
  EC50: 0.8 nM

## COc1cc(C)c2[nH]cc(/C=N/NC(=N)NCCc3ccc([N+](=O)[O-])cc3)c2c1
[1]
  EC50: 13.6 nM

## N=C(NCCc1ccc(Cl)cc1)N/N=C/c1c[nH]c2cc(F)ccc12
[1]
  EC50: 3470 nM

## COc1cc(C)c2[nH]cc(/C=N/NC(=N)NCCc3ccc(I)cc3)c2c1
[1]
  EC50: 67 nM

## Cc1cc(C#N)cc2c(/C=N/NC(=N)NCCc3ccc(Cl)cc3)c[nH]c12
[1]
  EC50: 82.3 nM

## COc1cc(C)c2[nH]cc(/C=N/NC(=N)NCCc3ccc(C#N)cc3)c2c1
[1]
  EC50: 13.2 nM
[3]
  Ki: 268 nM

## N=C(NCCc1ccc(Cl)cc1)N/N=C/c1c[nH]c2ccccc12
[1]
  EC50: 6940 nM

## N=C(NCCc1ccc(Cl)cc1)N/N=C/c1c[nH]c2ccc(Cl)cc12
[1]
  EC50: 2820 nM

## COc1cc(C)c2[nH]cc(/C=N/NC(=N)Nc3ccc(Cl)cc3)c2c1
[1]
  EC50: 3120 nM

## COC(=O)c1ccc(CCNC(=N)N/N=C/c2c[nH]c3c(C)cc(C#N)cc23)cc1
[2]
  EC50: 2.7 nM

## COc1ccc(CCNC(=N)N/N=C/c2c[nH]c3c(C)cc(OC)cc23)cc1
[1]
  EC50: 56.1 nM

## COc1cc(C)c2[nH]cc(/C=N/NC(=N)NCCc3ccc(Cl)cc3)c2c1
[1]
  EC50: 74.7 nM

## COc1cc(C)c2[nH]cc(/C=N/NC(=N)NCCc3ccc(Br)cc3)c2c1
[1]
  EC50: 69.9 nM

## CCc1cc(OC)cc2c(/C=N/NC(=N)NCCc3cccnc3)c[nH]c12
[1]
  EC50: 2.3 nM
[2]
  EC50: 1.1 nM
[4]
  solubility kinetic at 2 h: 74.6 µM (≈ 27.2 µg/mL)

## N=C(NCCc1ccc(Cl)cc1)N/N=C/c1c[nH]c2ccc(F)cc12
[1]
  EC50: 1360 nM

## N=C(NCCc1ccc(Cl)cc1)N/N=C/c1c[nH]c2ccc([N+](=O)[O-])cc12
[1]
  EC50: 317 nM

## COc1ccc2c(/C=N/NC(=N)NCCc3ccc(Cl)cc3)c[nH]c2c1
[1]
  EC50: 4750 nM

## COC(=O)c1ccc(CCNC(=N)N/N=C/c2c[nH]c3c(C)cc(OC)cc23)cc1
[1]
  EC50: 7.7 nM
[2]
  EC50: 3.4 nM

## COc1cc(C)c2[nH]cc(/C=N/NC(=N)NCc3ccc(Cl)cc3)c2c1
[1]
  EC50: 3950 nM

## COc1cc(C)c2[nH]cc(/C=N/NC(=N)NCCCc3ccc(Cl)cc3)c2c1
[1]
  EC50: 1660 nM

## CCc1cc(C#N)cc2c(/C=N/NC(=N)NCCc3cccnc3)c[nH]c12
[2]
  EC50: 0.9 nM

## CCc1cc(OC)cc2c(/C=N/NC(=N)NCCc3ccc(Cl)cc3)c[nH]c12
[1]
  EC50: 19.5 nM

## COc1cc(C)c2[nH]cc(/C=N/NC(=N)NCCc3ccccc3)c2c1
[1]
  EC50: 224 nM

## CCc1cc(OC)cc2c(/C=N/NC(=N)NCCc3ccc(C#N)cc3)c[nH]c12
[2]
  EC50: 1.8 nM

## Cc1cccc2c(/C=N/NC(=N)NCCc3ccc(Cl)cc3)c[nH]c12
[1]
  EC50: 647 nM

## CCc1cc(OC)cc2c(/C=N/NC(=N)NCCc3ccc(F)cc3)c[nH]c12
[1]
  EC50: 5.6 nM
[2]
  EC50: 4 nM
[4]
  solubility kinetic at 2 h: 19.5 µM (≈ 7.44 µg/mL)

## Cc1ccc2c(/C=N/NC(=N)NCCc3ccc(Cl)cc3)c[nH]c2c1
[1]
  EC50: 7440 nM

## COc1cc(C)c2[nH]cc(/C=N/NC(=N)NCCc3ccccn3)c2c1
[1]
  EC50: 855 nM

## COc1ccc2[nH]cc(/C(C)=N/NC(=N)NCCc3ccc(Cl)cc3)c2c1
[1]
  EC50: 7690 nM
